Results: paper PMC9516332 (Frontiers in Oncology, 2022)
Where two headings read alike, the source gives them in different places.

What was measured:
134 cancer cell lines = experiment: Cell viability assay (ATPlite, 72 hours), IC50 on cancer cell line panel
AP-1060 (ETV6-NTRK3) = experiment: Cell viability assay; conditions: read-out: IC50 in cell proliferation assay
[1] = molecular target: panel of 255 wild-type kinases (Homo sapiens, UniProt P48729); experiment: Kinase panel profiling at 1 µmol/L (MSA or IMAP), percentage inhibition; assay type: biochemical; conditions: kinase CK1α; 1 µmol/L single concentration; read-out: %-inhibition at 1 µmol/L, CK1α
[2] = molecular target: panel of 255 wild-type kinases (Homo sapiens, UniProt P06241); experiment: as above; assay type: biochemical; conditions: kinase FYN [isoform a]; 1 µmol/L single concentration; read-out: %-inhibition at 1 µmol/L, FYN [isoform a]
[3] = molecular target: panel of 255 wild-type kinases (Homo sapiens, UniProt Q16816); experiment: as above; assay type: biochemical; conditions: kinase PHKG1; 1 µmol/L single concentration; read-out: %-inhibition at 1 µmol/L, PHKG1
[4] = molecular target: panel of 255 wild-type kinases (Homo sapiens, UniProt Q13882); experiment: as above; assay type: biochemical; conditions: BRK kinase assay; 1 µmol/L single concentration; read-out: %-inhibition BRK
[5] = molecular target: panel of 255 wild-type kinases (Homo sapiens, UniProt Q9H422); experiment: as above; assay type: biochemical; conditions: kinase HIPK3; 1 µmol/L single concentration; read-out: %-inhibition at 1 µmol/L, HIPK3

SMILES: COC(=O)N[C@@H](C)CNc1nccc(-c2cn(C(C)C)nc2-c2cc(Cl)cc(NS(C)(=O)=O)c2F)n1 [encorafenib]
- IC50 (134 cancer cell lines; Homo sapiens, NCI-H82, read-out: IC50 in cell proliferation assay, cell line NCI-H82): 1070 nM
- IC50 (134 cancer cell lines; Homo sapiens, NCI-H460, read-out: IC50 in cell proliferation assay, NCI-H460 cell line): 1160 nM
- IC50 (134 cancer cell lines; Homo sapiens, NCI-H661, read-out: IC50 in cell proliferation assay, NCI-H661 cell line): 821 nM
- IC50 (134 cancer cell lines; Homo sapiens, NCI-H716, read-out: IC50 in cell proliferation assay, cell line NCI-H716 (FGFR2-COL14A1)): 9560 nM
- IC50 (134 cancer cell lines; Homo sapiens, NCI-H1650, read-out: IC50 in cell proliferation assay, NCI-H1650 cell line (EGFR exon19del)): > 31600 nM
- IC50 (134 cancer cell lines; Homo sapiens, NCI-H1975, read-out: IC50 in cell proliferation assay, NCI-H1975 cell line (EGFR p.L858R + p.T790M)): 1440 nM
- IC50 (134 cancer cell lines; Homo sapiens, NCI-H2228, read-out: IC50 in cell proliferation assay, NCI-H2228 cell line (EML4-ALK)): 2300 nM
- IC50 (134 cancer cell lines; Homo sapiens, OVCAR-3, read-out: IC50 in cell proliferation assay, cell line OVCAR-3): 695 nM
- IC50 (134 cancer cell lines; Homo sapiens, PFSK-1, read-out: IC50 in cell proliferation assay, cell line PFSK-1): 1000 nM
- IC50 (134 cancer cell lines; Homo sapiens, RL95-2, read-out: IC50 in cell proliferation assay, cell line RL95-2 (EGFR p.A289V)): 924 nM
- IC50 (134 cancer cell lines; Homo sapiens, RPMI-7951, read-out: IC50 in cell proliferation assay, cell line RPMI-7951 (BRAF p.V600E)): 13 nM
- IC50 (134 cancer cell lines; Homo sapiens, RS4-11, read-out: IC50 in cell proliferation assay, cell line RS4;11): 925 nM
- IC50 (134 cancer cell lines; Homo sapiens, Rec1, read-out: IC50 in cell proliferation assay, cell line REC-1): 8530 nM
- IC50 (134 cancer cell lines; Homo sapiens, SHP77, read-out: IC50 in cell proliferation assay, cell line SHP-77): > 31600 nM
- IC50 (134 cancer cell lines; Homo sapiens, SK-BR-3, read-out: IC50 in cell proliferation assay, cell line SK-BR-3 (ERBB2 amplification)): > 31600 nM
- IC50 (134 cancer cell lines; Homo sapiens, SK-N-AS, read-out: IC50 in cell proliferation assay, cell line SK-N-AS): 1110 nM
- IC50 (134 cancer cell lines; Homo sapiens, SK-N-FI, read-out: IC50 in cell proliferation assay, cell line SK-N-FI): 3280 nM
- IC50 (134 cancer cell lines; Homo sapiens, SK-N-MC, read-out: IC50 in cell proliferation assay, cell line SK-N-MC): 976 nM
- IC50 (134 cancer cell lines; Homo sapiens, SK-N-SH, read-out: IC50 in cell proliferation assay, cell line SK-N-SH (ALK p.F1174L)): 1110 nM
- IC50 (134 cancer cell lines; Homo sapiens, SNU-5, read-out: IC50 in cell proliferation assay, cell line SNU-5 (MET amplification)): 7360 nM
- IC50 (134 cancer cell lines; Homo sapiens, SNU-16, read-out: IC50 in cell proliferation assay, cell line SNU-16 (FGFR2 amplification)): 1750 nM
- IC50 (134 cancer cell lines; Homo sapiens, SNU-C2B, read-out: IC50 in cell proliferation assay, cell line SNU-C2B (EGFR p.R165Q)): 9590 nM
- IC50 (134 cancer cell lines; Homo sapiens, SU-DHL-1, read-out: IC50 in cell proliferation assay, cell line SU-DHL-1 (NPM1-ALK)): 2150 nM
- IC50 (134 cancer cell lines; Homo sapiens, SU-DHL-6, read-out: IC50 in cell proliferation assay, cell line SU-DHL-6): 5810 nM
- IC50 (134 cancer cell lines; Homo sapiens, SUP-T1, read-out: IC50 in cell proliferation assay, cell line SUP-T1): > 31600 nM
- IC50 (134 cancer cell lines; Homo sapiens, SW48, read-out: IC50 in cell proliferation assay, cell line SW48 (EGFR p.G719S)): 2230 nM
- IC50 (134 cancer cell lines; Homo sapiens, SW480, read-out: IC50 in cell proliferation assay, cell line SW480): 1220 nM
- IC50 (134 cancer cell lines; Homo sapiens, SW626, read-out: IC50 in cell proliferation assay, cell line SW626): 2440 nM
- IC50 (134 cancer cell lines; Homo sapiens, SW780, read-out: IC50 in cell proliferation assay, cell line SW780 (FGFR3-BAIAP2L1)): 19800 nM
- IC50 (134 cancer cell lines; Homo sapiens, SW837, read-out: IC50 in cell proliferation assay, cell line SW837): > 31600 nM
- IC50 (134 cancer cell lines; Homo sapiens, SW872, read-out: IC50 in cell proliferation assay, cell line SW872 (BRAF p.V600E)): 7 nM
- IC50 (134 cancer cell lines; Homo sapiens, SW900, read-out: IC50 in cell proliferation assay, cell line SW900): 1390 nM
- IC50 (134 cancer cell lines; Homo sapiens, SW948, read-out: IC50 in cell proliferation assay, cell line SW948): 3230 nM
- IC50 (134 cancer cell lines; Homo sapiens, SW982, read-out: IC50 in cell proliferation assay, cell line SW982 (BRAF p.V600E)): 549 nM
- IC50 (134 cancer cell lines; Homo sapiens, SW-620, read-out: IC50 in cell proliferation assay, cell line SW620): 1810 nM
- IC50 (134 cancer cell lines; Homo sapiens, T98G, read-out: IC50 in cell proliferation assay, cell line T98G): 1670 nM
- IC50 (134 cancer cell lines; Homo sapiens, TCC-SUP, read-out: IC50 in cell proliferation assay, cell line TCCSUP): 740 nM
- IC50 (134 cancer cell lines; Homo sapiens, THP-1, read-out: IC50 in cell proliferation assay, cell line THP-1): 2460 nM
- IC50 (134 cancer cell lines; Homo sapiens, U2OS, read-out: IC50 in cell proliferation assay, cell line U2OS): 1460 nM
- IC50 (134 cancer cell lines; Homo sapiens, U-87 MG, read-out: IC50 in cell proliferation assay, cell line U-87MG ATCC): 1050 nM
- IC50 (134 cancer cell lines; Homo sapiens, U-118-MG, read-out: IC50 in cell proliferation assay, cell line U-118MG): 1410 nM
- IC50 (134 cancer cell lines; Homo sapiens, UMUC3, read-out: IC50 in cell proliferation assay, cell line UM-UC-3): 993 nM
- IC50 (134 cancer cell lines; Hs766T, read-out: IC50 in cell proliferation assay, Hs 766T cell line): 1900 nM
- IC50 (134 cancer cell lines; L-82, read-out: IC50 in cell proliferation assay, L-82 cell line (NPM1-ALK)): 8750 nM
- IC50 (134 cancer cell lines; Rh30, read-out: IC50 in cell proliferation assay, cell line Rh30): 1080 nM
- IC50 (134 cancer cell lines; read-out: IC50 in cell proliferation assay, 11-18 cell line (EGFR p.L858R)): > 31600 nM
- IC50 (134 cancer cell lines; read-out: IC50 in cell proliferation assay, Hs 852.T cell line): 3370 nM
- IC50 (134 cancer cell lines; read-out: IC50 in cell proliferation assay, JAR cell line): 419 nM
- IC50 (134 cancer cell lines; read-out: IC50 in cell proliferation assay, cell line 5637): 586 nM
- IC50 (134 cancer cell lines; read-out: IC50 in cell proliferation assay, cell line A-388): 2000 nM
- IC50 (134 cancer cell lines; read-out: IC50 in cell proliferation assay, cell line DB): 1200 nM
- IC50 (134 cancer cell lines; read-out: IC50 in cell proliferation assay, cell line DEL (NPM1-ALK)): 6420 nM
- IC50 (134 cancer cell lines; read-out: IC50 in cell proliferation assay, cell line ES-2 (BRAF p.V600E)): 100 nM
- IC50 (134 cancer cell lines; read-out: IC50 in cell proliferation assay, cell line PA-1): 841 nM
- IC50 (134 cancer cell lines; read-out: IC50 in cell proliferation assay, cell line PC-3): 1370 nM
- IC50 (134 cancer cell lines; read-out: IC50 in cell proliferation assay, cell line RD): 1630 nM
- IC50 (134 cancer cell lines; read-out: IC50 in cell proliferation assay, cell line RKO (BRAF p.V600E)): 244 nM
- IC50 (134 cancer cell lines; read-out: IC50 in cell proliferation assay, cell line RL): 29200 nM
- IC50 (134 cancer cell lines; read-out: IC50 in cell proliferation assay, cell line RT-4 (FGFR3-TACC3)): 3770 nM
- IC50 (134 cancer cell lines; read-out: IC50 in cell proliferation assay, cell line SR (NPM1-ALK)): 921 nM
- IC50 (134 cancer cell lines; read-out: IC50 in cell proliferation assay, cell line T24): 1050 nM
- IC50 (134 cancer cell lines; read-out: IC50 in cell proliferation assay, cell line TT (RET p.C634W)): 5090 nM
- IC50 (134 cancer cell lines; read-out: IC50 in cell proliferation assay, cell line VA-ES-BJ): 1130 nM
- IC50 (AP-1060 (ETV6-NTRK3)): 2520 nM
- inhibition at 1 µM [1]: 36%
- inhibition at 1 µM [2]: 6%
- inhibition at 1 µM [3]: 3%
- inhibition at 1 µM [4]: 25%
- inhibition at 1 µM [5]: 5.63%
